For data set [1], the target named is T1, human liver FBPase (Homo sapiens, UniProt P09467).
T1 construct: made in house; host or cells: E. coli BL21
T1 sequence (P09467 2-338 limits assumed): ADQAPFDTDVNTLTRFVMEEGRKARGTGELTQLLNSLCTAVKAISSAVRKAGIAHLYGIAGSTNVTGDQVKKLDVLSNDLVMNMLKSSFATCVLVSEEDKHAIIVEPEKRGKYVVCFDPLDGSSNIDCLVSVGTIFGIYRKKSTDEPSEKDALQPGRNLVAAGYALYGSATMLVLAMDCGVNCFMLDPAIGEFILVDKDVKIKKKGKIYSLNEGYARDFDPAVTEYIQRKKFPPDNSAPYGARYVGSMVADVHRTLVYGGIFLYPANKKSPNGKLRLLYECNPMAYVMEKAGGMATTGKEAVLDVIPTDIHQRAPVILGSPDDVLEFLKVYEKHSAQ
The experiment in a line: Inhibition of human liver FBPase. Type of data set: biochemical. As to conditions: for pIC50: values in text, read-out: hlFBPase IC50.
Method: Enzymatic activity was measured spectrophotometrically in reactions that coupled the formation of product (fructose 6-phosphate) to the reduction of dimethylthiazoldiphenyltetrazolium bromide (MTT) via NADP and phenazine methosulfate (PMS), using phosphoglucose isomerase and glucose 6-phosphate dehydrogenase as the coupling enzymes. Reaction mixtures (200 μl) were made up in 96-well microtitre plates, and consisted of 50 mM Tris-HCl, pH 7.4, 100 mM KCl, 5 mM EGTA, 2 mM MgCl2, 0.2 mM NADP, 1 mg/ml BSA, 1 mM MTT, 0.6 mM PMS, 1 unit/mL phosphoglucose isomerase, 2 units/mL glucose 6-phosphate dehydrogenase, and 0.150 mM substrate (fructose 1,6-bisphosphate). Inhibitor concentrations were varied from 0.01 μM to 10 μM. Reactions were started by the addition of 0.002 units of pure hlFBPase and were monitored for 7 minutes at 590 nm in a Molecular Devices Plate Reader (37° C.).

Data set [2] deals with T2, Phosphofructokinase (rabbit liver) (Oryctolagus cuniculus, UniProt Z9KA34MY27).
T2 construct: Phosphofructokinase: Enzyme (rabbit liver) was purchased from Sigma
As to the kind of experiment: Phosphofructokinase selectivity assay. Type of data set: biochemical. Particulars: result in words. How it is done: (§1) To determine the selectivity of compounds towards FBPase, effects of FBPase inhibitors on 5 key AMP binding enzymes were measured using the assays described below:
Phosphofructokinase: Enzyme (rabbit liver) was purchased from Sigma. Activity was measured at 30° C. in reactions in which the formation of fructose 1,6-bisphosphate was coupled to the oxidation of NADH via the action of aldolase, triosephosphate isomerase, and α-glycerophosphate dehydrogenase. Reaction mixtures (200 μL) were made up in 96-well microtitre plates and were read at 340 nm in a Molecular Devices Microplate Reader. The mixtures consisted of 200 mM Tris-HCl pH 7.0, 2 mM DTT, 2 mM MgCl2, 0.2 mM NADH, 0.2 mM ATP, 0.5 mM Fructose 6-phosphate, 1 unit aldolase/ml, 3 units/ml triosephosphate isomerase, and 4 units/mL α-glycerophosphate dehydrogenase. Test compound concentrations ranged from 1 to 500 μM. Reactions were started by the addition of 0.0025 units of phosphofructokinase and were monitored for 15 minutes.

In data set [3] the test system is rat hepatocytes. The experiment in a line: Inhibition of gluconeogenesis in rat hepatocytes. The data set is classed as cell-based. As to conditions: for pIC50: Hepatocyte, glucose production from lactate/pyruvate, isolated rat hepatocytes, 1 hour; for inhibition of glucose production in rat hepatocytes (FIG. 4): result in words. Here is the method: Hepatocytes were prepared from overnight fasted Sprague-Dawley rats (250-300 g) according to the procedure of Berry and Friend (Berry, M. N., Friend, D. S., 1969, J. Cell. Biol. 43, 506-520) as modified by Groen (Groen, A. K., Sips, H. J., Vervoorn, R. C., Tager, J. M., 1982, Eur. J. Biochem. 122, 87-93). Hepatocytes (75 mg wet weight/mL) were incubated in 1 ml Krebs-bicarbonate buffer containing 10 mM Lactate, 1 mM pyruvate, 1 mg/mL BSA, and test compound concentrations from 1 to 500 μM. Incubations were carried out in a 95% oxygen, 5% carbon dioxide atmosphere in closed, 50-mL Falcon tubes submerged in a rapidly shaking water bath (37° C.). After 1 hour, an aliquot (0.25 mL) was removed, transferred to an Eppendorf tube and centrifuged. 50 μL of supernatant was then assayed for glucose content using a Sigma Glucose Oxidase kit as per the manufacturer's instructions.

In data set [4] the test system is Porcine heart AMPDA. As to the kind of experiment: Adenosine monophosphate deaminase selectivity assay. Type of data set: biochemical. Particulars: AMP deaminase vs hlFBPase. Here is the method: as §1
Adenosine Monophosphate Deaminase: Porcine heart AMPDA was purified essentially as described by Smiley et al. (Smiley, K. L., Jr, Berry, A. J., and Suelter, C. H. (1967) J. Biol. Chem. 242, 2502-2506) through the phosphocellulose step. Inhibition of AMPDA activity was determined at 37° C. in a 0.1 mL assay mixture containing inhibitor, ˜0.005 U AMPDA, 0.1% bovine serum albumin, 10 mM ATP, 250 mM KCl, and 50 mM MOPS at pH 6.5. The concentration of the substrate AMP was varied from 0.125-10.0 mM. Catalysis was initiated by the addition of enzyme to the otherwise complete reaction mixture, and terminated after 5 minutes by injection into an HPLC system. Activities were determined from the amount of IMP formed during 5 minutes.

In data set [5] the target is T3, Glycogen Phosphorylase (rabbit muscle) (Oryctolagus cuniculus, UniProt P00489).
T3 construct: Enzyme (rabbit muscle) was purchased from Sigma; purchased Sigma; host or cells: rabbit muscle
T3 sequence (P00489 2-843 limits assumed): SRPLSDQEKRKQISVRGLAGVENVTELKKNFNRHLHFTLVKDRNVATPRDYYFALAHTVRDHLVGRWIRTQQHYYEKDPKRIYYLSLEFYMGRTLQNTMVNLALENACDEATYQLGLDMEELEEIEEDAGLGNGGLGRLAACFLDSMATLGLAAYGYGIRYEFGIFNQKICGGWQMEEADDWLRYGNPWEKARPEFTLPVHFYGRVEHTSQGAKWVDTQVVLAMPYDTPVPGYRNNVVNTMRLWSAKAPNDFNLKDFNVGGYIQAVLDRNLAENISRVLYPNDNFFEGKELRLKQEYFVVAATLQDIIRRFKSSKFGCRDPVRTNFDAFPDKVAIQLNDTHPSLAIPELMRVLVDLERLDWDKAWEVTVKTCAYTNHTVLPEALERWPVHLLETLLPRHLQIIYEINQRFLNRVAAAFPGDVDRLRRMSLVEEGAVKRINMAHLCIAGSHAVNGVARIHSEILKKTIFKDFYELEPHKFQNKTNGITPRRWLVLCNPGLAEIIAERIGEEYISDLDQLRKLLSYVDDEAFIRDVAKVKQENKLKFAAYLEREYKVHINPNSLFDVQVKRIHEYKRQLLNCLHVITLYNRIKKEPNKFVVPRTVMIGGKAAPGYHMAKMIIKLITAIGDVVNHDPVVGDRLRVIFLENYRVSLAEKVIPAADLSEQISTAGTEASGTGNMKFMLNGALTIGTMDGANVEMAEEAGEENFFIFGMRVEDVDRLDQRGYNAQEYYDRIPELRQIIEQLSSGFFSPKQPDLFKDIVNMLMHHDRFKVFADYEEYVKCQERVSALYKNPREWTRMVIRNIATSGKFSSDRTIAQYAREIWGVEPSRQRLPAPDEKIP
The experiment in a line: Glycogen phosphorylase selectivity assay. The data set is classed as biochemical. As to conditions: for pEC50: Table 3 Selectivity, read-out: Glycogen Phosphorylase (act.); for effect on glycogen phosphorylase: result in words. How it is done:
as §1
Glycogen Phosphorylase: Enzyme (rabbit muscle) was purchased from Sigma. Activity was measured at 37° C. in reactions in which the formation of glucose 1-phosphate was coupled to the reduction of NADP via phosphoglucomutase and glucose 6-phosphate dehydrogenase. Assays were performed on 96-well microtitre plates and were read at 340 nm on a Molecular Devices Microplate Reader. Reaction mixtures consisted of 20 mM imidazole, pH 7.4, 20 mM MgCl2, 150 mM potassium acetate, 5 mM potassium phosphate, 1 mM DTT, 1 mg/ml BSA, 0.1 mM NADP, 1 unit/mL phosphoglucomutase, 1 unit/mL glucose 6-phosphate dehydrogenase, 0.5% glycogen. Test compound concentrations ranged from 1 to 500 μM. Reactions were started by the addition of 17 μg enzyme and were monitored for 20 minutes.

pEC50, pIC50: −log10 of the molar value.

The source of these data is patent US6399782B1, “Benzimidazole inhibitors of fructose 1,6-bisphosphatase” (Metabasis Therapeutics, Inc., priority 1997, dated 2002).

As usually defined, the pIC50 is the negative decadic logarithm of the IC50, by convention in mol/L.

T2 sequence (Z9KA34MY27 1-780): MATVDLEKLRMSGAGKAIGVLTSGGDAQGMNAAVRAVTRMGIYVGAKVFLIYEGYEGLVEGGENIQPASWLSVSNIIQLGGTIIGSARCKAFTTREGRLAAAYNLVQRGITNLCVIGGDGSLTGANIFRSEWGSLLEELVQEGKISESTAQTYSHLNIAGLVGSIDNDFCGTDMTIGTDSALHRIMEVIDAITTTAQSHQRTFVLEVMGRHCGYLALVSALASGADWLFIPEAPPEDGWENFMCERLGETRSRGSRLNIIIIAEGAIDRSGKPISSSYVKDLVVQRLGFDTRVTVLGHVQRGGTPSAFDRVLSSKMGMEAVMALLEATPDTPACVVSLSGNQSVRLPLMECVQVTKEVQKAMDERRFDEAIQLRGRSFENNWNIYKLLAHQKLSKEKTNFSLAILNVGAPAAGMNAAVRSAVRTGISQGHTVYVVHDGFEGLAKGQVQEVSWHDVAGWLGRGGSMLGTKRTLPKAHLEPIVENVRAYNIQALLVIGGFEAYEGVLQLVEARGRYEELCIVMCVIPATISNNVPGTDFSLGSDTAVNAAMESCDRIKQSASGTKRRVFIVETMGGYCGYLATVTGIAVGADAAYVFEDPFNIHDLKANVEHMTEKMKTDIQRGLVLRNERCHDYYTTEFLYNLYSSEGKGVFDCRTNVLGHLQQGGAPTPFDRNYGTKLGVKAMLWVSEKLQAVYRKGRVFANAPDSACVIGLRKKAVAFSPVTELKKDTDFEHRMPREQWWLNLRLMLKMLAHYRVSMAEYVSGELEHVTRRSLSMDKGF

In the case of `CCn1c(-c2ccc(P(=O)(O)O)o2)nc2c(N)cccc21` [Compound 12.1, 4-Amino-1-ethyl-2-[2-(5-phosphono)furanyl]benzimidazole], in data set [1], the pIC50 is 5.70. Also, the effect on phosphofructokinase entry in data set [2] is “essentially inactive”. Also, in data set [3], the negative-log IC50 (pIC50) is 3.96 and the “inhibition of glucose production in rat hepatocytes (FIG. 4)” value is recorded as “inhibit glucose production in vitro in rat hepatocytes”. In addition, the “half-maximal inhibition of AMP deaminase relative to IC50 for FBPase” value in data set [4] came to 42 fold. Besides, in data set [5], the pEC50 is < 3.70 and the “effect on glycogen phosphorylase” value was “essentially inactive”.
`Nc1c(F)ccc2c1nc(-c1ccc(P(=O)(O)O)o1)n2CC1CC1` [Compound 12.61, 4-Amino-5-fluoro-1-cyclopropylmethyl-2-(2-phosphono-5-furanyl)benzimidazole]: the “inhibition of human liver FBPase activity (FIG. 2)” value in data set [1] (result in words) was “inhibit human liver FBPase activity in vitro in a dose dependent manner”. In data set [1], the negative-log IC50 (pIC50) was 7.26. The effect on phosphofructokinase result in data set [2] is listed as “essentially without effect”. Moreover, in data set [3], the negative logarithm of the IC50 (pIC50) is 5.48 and the “inhibition of glucose production in rat hepatocytes (FIG. 4)” value was “inhibit glucose production in vitro in rat hepatocytes”. In addition, the “half-maximal inhibition of AMP deaminase relative to IC50 for FBPase” value in data set [4] is ~600 fold. In addition, in data set [5], the pEC50 is < 4.00 and the “effect on glycogen phosphorylase” value is recorded as “essentially without effect”.
Turning to `CCc1cc(F)c(N)c2nc(-c3ccc(P(=O)(O)O)o3)n(CC(C)C)c12` [Compound 12.64], in data set [3], the negative logarithm of the IC50 (pIC50) was 5.60. The pEC50 in data set [5] was < 3.30. In data set [5] (concentrations of drug ranging from 5 to […]), the “activation of glycogen phosphorylase” value is “no activation of the enzyme was observed”.
